Source: patent US10597388B2, “Pyridazinone herbicides” (FMC CORPORATION, priority 2014, dated 2020)
Read-outs that look alike come from different tables or passages of the source.

Key:
Format in all cases: in vivo
[1] = system: barnyardgrass (Echinochloa crus-galli); assay: Test A greenhouse herbicide test, pre- and postemergence; settings: for pest or weed control at 125 g/ha / pest or weed control at 500 g/ha: Echinochloa crus-galli, 240 h
Outline: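 Seeds sown in loam–sand blend got a preemergence directed soil spray of compound in non-phytotoxic solvent with surfactant. Postemergence treatment was given at 2–10 cm, one- to two-leaf stage. After ~10 d in greenhouse, injury was rated visually vs untreated controls, 0 (no effect) to 100 (complete control).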

[2] = system: barnyardgrass (Echinochloa crus-galli); assay: Test B flooded paddy test; settings: Echinochloa crus-galli, 360 h; 250 g ai/ha, Flood; visual rating on scale of 0 to 100 where 0 is no effect and 100 is complete control; 13 to 15 d after treatment; read-out: Plant response rating, Barnyardgrass
Outline: (§1)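 Plants at the 2-leaf stage were flooded to 3 cm above soil, and test compounds were applied directly into the paddy water, which was held at that depth throughout. After 13 to 15 d in a greenhouse, injury was rated visually against untreated controls on a 0–100 scale (0 no effect, 100 complete control).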

[3] = system: ducksalad (Heteranthera limosa); assay: Test B flooded paddy test; settings: Heteranthera limosa, 360 h; 250 g ai/ha, Flood; visual rating on scale of 0 to 100 where 0 is no effect and 100 is complete control; 13 to 15 d after treatment; read-out: Plant response rating, Ducksalad
Outline: as §1

rice (Oryza sativa) = assay: Test B flooded paddy test; settings: Oryza sativa, 360 h; 250 g ai/ha, Flood; visual rating on scale of 0 to 100 where 0 is no effect and 100 is complete control; 13 to 15 d after treatment; read-out: Plant response rating, Rice
Outline: as §1

[4] = system: sedge, umbrella (small-flower umbrella sedge, Cyperus difformis); assay: Test B flooded paddy test; settings: Cyperus difformis, 360 h; 250 g ai/ha, Flood; visual rating on scale of 0 to 100 where 0 is no effect and 100 is complete control; 13 to 15 d after treatment; read-out: Plant response rating, Sedge, Umbrella
Outline: as §1

[5] = system: blackgrass (Alopecurus myosuroides); assay: Test A greenhouse herbicide test, postemergence; settings: for Blackgrass plant response rating: 0 to 100 scale, 0 is no effect, 100 is complete control
Outline: (§2)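 Plants grown in loam soil/sand blend pots were treated postemergence at 2 to 10 cm height, one- to two-leaf stage, with formulated test chemicals. After approximately 10 d in a greenhouse, injury was rated visually against untreated controls on a 0 to 100 scale (0 no effect, 100 complete control).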

[6] = system: galium (catchweed bedstraw, Galium aparine); assay: Test A greenhouse herbicide test, postemergence; settings: for Galium plant response rating: 0 to 100 scale, 0 is no effect, 100 is complete control
Outline: as §2

[7] = system: chickweed (common chickweed, Stellaria media); assay: Test C greenhouse herbicide test, postemergence
Outline: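 Plants grown in potting mix of peat moss, vermiculite, wetting agent and starter nutrients were sprayed postemergence at 2 to 18 cm height (1- to 4-leaf stage). After 13 to 15 d in the greenhouse, injury was visually rated against untreated controls on a 0–100 scale (0 no effect, 100 complete control).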

[8] = Postemergence, 500 g ai/ha, 0 to 100 scale, 0 is no effect, 100 is complete control
[9] = Preemergence, 125 g ai/ha, 0 to 100 scale where 0 is no effect and 100 is complete control
[10] = Preemergence, 500 g ai/ha, 0 to 100 scale, 0 no effect, 100 complete control
[11] = 125 g ai/ha, visual rating after approx. 10 d, 0 to 100 scale (0 no effect, 100 complete control)
[12] = Postemergence, 31 g ai/ha, 0 to 100 scale (0 no effect, 100 complete control)
[13] = Postemergence, 125 g ai/ha, scale 0 to 100, 0 is no effect, 100 is complete control
[14] = Postemergence, 250 g ai/ha, scale 0 to 100, 0 no effect, 100 complete control, 13 to 15 d
[15] = postemergence, 62 g ai/ha, scale 0 to 100, 0 no effect, 100 complete control
[16] = Postemergence, 125 g ai/ha, 0 to 100 scale where 0 is no effect and 100 is complete control
[17] = 125 g ai/ha, 0 to 100 scale where 0 is no effect and 100 is complete control
[18] = Preemergence, 500 g ai/ha, 0 to 100 scale where 0 is no effect and 100 is complete control
[19] = 500 g ai/ha, visual rating after approx. 10 d, 0 to 100 scale (0 no effect, 100 complete control)
[20] = Postemergence, 31 g ai/ha, scale 0 to 100 (0 no effect, 100 complete control)

Cc1nn(C)c(=O)c(-c2c(C)oc3c(C)cccc23)c1O [Compound 9, 4-(2,7-dimethyl-3-benzofuranyl)-5-hydroxy-2,6-dimethyl-3(2H)-pyridazinone]
pest or weed control at 125 g/ha ([1]; post-emergence, Postemergence, 125 g ai/ha, visual rating after approx. 10 d, 0 to 100 scale (0 no effect, 100 complete control), read-out: Plant response rating, Barnyardgrass): 10%
pest or weed control at 500 g/ha ([1]; post-emergence, Postemergence, 500 g ai/ha, 0 to 100 scale, 0 is no effect, 100 is complete control, read-out: Barnyardgrass plant response rating): 90%
pest or weed control at 125 g/ha ([1]; pre-emergence, Preemergence, 125 g ai/ha, 0 to 100 scale where 0 is no effect and 100 is complete control, read-out: Barnyardgrass plant response rating): 50%
pest or weed control at 500 g/ha ([1]; pre-emergence, Preemergence, 500 g ai/ha, 0 to 100 scale, 0 no effect, 100 complete control, read-out: Plant response rating, Barnyardgrass): 100%
pest or weed control at 250 g/ha [2]: 0%
pest or weed control at 250 g/ha [3]: 0%
plant injury at 250 g/ha (rice (Oryza sativa)): 0%
pest or weed control at 250 g/ha [4]: 0%

CCOC(=O)Oc1c(C)nn(C)c(=O)c1-c1c(CC)ccc2ccccc12 [Compound 37]
Plant response rating, Barnyardgrass ([1]; Postemergence, 125 g ai/ha, visual rating after approx. 10 d, 0 to 100 scale (0 no effect, 100 complete control)): 60
Barnyardgrass plant response rating [1, 8]: 90
Barnyardgrass plant response rating [1, 9]: 30
Plant response rating, Barnyardgrass [1, 10]: 90
Plant response rating, Blackgrass [5, 11]: 60
Blackgrass plant response rating ([5]; 500 g ai/ha): 100
Plant response rating, Galium [6, 11]: 100
Galium plant response rating ([6]; 500 g ai/ha): 100
Chickweed plant response rating [7, 12]: 90
Plant response rating, Chickweed [7, 13]: 90
Plant response rating, Chickweed [7, 14]: 95
Chickweed plant response rating [7, 15]: 90

COc1ccc2ccccc2c1-c1c(O)c(C)nn(C)c1=O [Compound 40]
Plant response rating, Barnyardgrass [1, 16]: 10
Barnyardgrass plant response rating [1, 8]: 60
Barnyardgrass plant response rating [1, 9]: 10
Plant response rating, Barnyardgrass [1, 10]: 50
Plant response rating, Blackgrass [5, 17]: 60
Blackgrass plant response rating ([5]; 500 g ai/ha): 80
Plant response rating, Galium [6, 17]: 90
Galium plant response rating ([6]; 500 g ai/ha): 100
Plant response rating, Chickweed ([7]; Postemergence, 16 g ai/ha, scale 0 to 100 (0 no effect, 100 complete control)): 50
Chickweed plant response rating [7, 12]: 55
Plant response rating, Chickweed [7, 13]: 90
Chickweed plant response rating [7, 15]: 60

Cc1ccc(-c2c(O)c(Br)nn(C)c2=O)c2ccccc12 [Compound 52]
Plant response rating, Barnyardgrass [1, 16]: 10
Barnyardgrass plant response rating [1, 8]: 50
Barnyardgrass plant response rating [1, 9]: 50
Plant response rating, Barnyardgrass [1, 10]: 70
Plant response rating, Blackgrass [5, 17]: 20
Blackgrass plant response rating ([5]; 500 g ai/ha): 30
Plant response rating, Galium [6, 17]: 100
Galium plant response rating ([6]; 500 g ai/ha): 100
Chickweed plant response rating [7, 12]: 95
Plant response rating, Chickweed [7, 13]: 98
Plant response rating, Chickweed [7, 14]: 100
Chickweed plant response rating [7, 15]: 90

CC(=O)Oc1c(C)nn(C)c(=O)c1-c1ccc(F)c2ccccc12 [Compound 90]
Plant response rating, Barnyardgrass [1, 16]: 80
Barnyardgrass plant response rating [1, 8]: 100
Barnyardgrass plant response rating [1, 9]: 60
Plant response rating, Barnyardgrass [1, 18]: 100
Plant response rating, Blackgrass [5, 17]: 70
Blackgrass plant response rating ([5]; 500 g ai/ha): 90
Plant response rating, Galium [6, 17]: 100
Galium plant response rating ([6]; 500 g ai/ha): 100
Chickweed plant response rating [7, 12]: 90
Plant response rating, Chickweed [7, 13]: 95
Plant response rating, Chickweed [7, 14]: 98
Chickweed plant response rating [7, 15]: 90

Cc1nn(C)c(=O)c(-c2c(C)sc3ccc(Cl)cc23)c1O [Compound 104]
Plant response rating, Barnyardgrass [1, 16]: 70
Barnyardgrass plant response rating [1, 8]: 100
Barnyardgrass plant response rating [1, 9]: 80
Plant response rating, Barnyardgrass [1, 18]: 100
Plant response rating, Blackgrass [5, 17]: 90
Blackgrass plant response rating ([5]; 500 g ai/ha): 90
Plant response rating, Galium [6, 17]: 100
Plant response rating, Galium [6, 19]: 100
Plant response rating, Chickweed [7, 20]: 90
Plant response rating, Chickweed [7, 13]: 100
Plant response rating, Chickweed [7, 14]: 100
Chickweed plant response rating [7, 15]: 98

CCCC(=O)Oc1c(C)nn(C)c(=O)c1-c1c(C)sc2c(C)cc(C)cc12 [Compound 106]
Plant response rating, Barnyardgrass [1, 16]: 70
Barnyardgrass plant response rating [1, 8]: 90
Barnyardgrass plant response rating [1, 9]: 80
Plant response rating, Barnyardgrass [1, 18]: 100
Plant response rating, Blackgrass [5, 17]: 90
Blackgrass plant response rating ([5]; 500 g ai/ha): 90
Plant response rating, Galium [6, 17]: 100
Plant response rating, Galium [6, 19]: 100
Plant response rating, Chickweed [7, 20]: 95
Plant response rating, Chickweed [7, 13]: 95
Plant response rating, Chickweed [7, 14]: 98
Chickweed plant response rating [7, 15]: 98

CCC(=O)Oc1c(C)nn(C)c(=O)c1-c1c(C)sc2ccc(Cl)cc12 [Compound 109]
Plant response rating, Barnyardgrass [1, 16]: 30
Barnyardgrass plant response rating [1, 8]: 90
Barnyardgrass plant response rating [1, 9]: 20
Plant response rating, Barnyardgrass [1, 18]: 100
Plant response rating, Blackgrass [5, 17]: 80
Blackgrass plant response rating ([5]; 500 g ai/ha): 90
Plant response rating, Galium [6, 17]: 100
Plant response rating, Galium [6, 19]: 100
Plant response rating, Chickweed [7, 20]: 80
Plant response rating, Chickweed [7, 13]: 95
Plant response rating, Chickweed [7, 14]: 100
Chickweed plant response rating [7, 15]: 95

CC(=O)Oc1c(Br)nn(C)c(=O)c1-c1c(C)ccc2ccccc12 [Compound 129]
Plant response rating, Barnyardgrass [1, 16]: 90
Plant response rating, Barnyardgrass ([1]; Postemergence, 500 g ai/ha, visual rating after approx. 10 d, 0 to 100 scale (0 no effect, 100 complete control)): 100
Barnyardgrass plant response rating [1, 9]: 90
Plant response rating, Barnyardgrass [1, 18]: 100
Plant response rating, Blackgrass [5, 17]: 60
Plant response rating, Blackgrass [5, 19]: 100
Plant response rating, Galium [6, 17]: 100
Plant response rating, Galium [6, 19]: 100
Plant response rating, Chickweed [7, 20]: 98
Chickweed plant response rating ([7]; Postemergence, 62 g ai/ha, 0 to 100 scale (0 no effect, 100 complete control)): 98
Plant response rating, Chickweed [7, 14]: 100
Chickweed plant response rating ([7]; postemergence, 125 g ai/ha, scale 0 to 100, 0 no effect, 100 complete control): 100
